Measured values published in patent US9527885B2, “Hepatitis C virus inhibitors” (BRISTOL-MYERS SQUIBB COMPANY, priority 2011, dated 2016).

What was measured:
[1] = tested on: HCV genotype 1b (Con1) replicon in HUH-7 cells; assay: HCV replicon luciferase reporter assay, genotype 1b; assay type: cell-based; conditions: Hepatitis C virus, 72 h, HCV genotype 1b replicon luciferase, 3 days incubation, range class, read-out: LE_1b (EC50, range)
Procedure, shortened: (§1)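 Twenty-point, threefold compound titrations (0.5% DMSO) were incubated 3 days at 37 °C with 3.0×10^3 HUH-7 cells/well in 4% FCS. The cells stably carried luciferase replicons: genotype 1b Con1 (S1179I) or 1a H77 (NS3 P1496L, NS5A S2204I). Renilla signal was read after 2 h with 7.5 μM EnduRen, and EC50 was taken from a four-parameter logistic fit. Cytotoxicity (CC50) was measured by Cell Titer-Blue, 8 h.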

[2] = tested on: HCV genotype 1a (H77 strain) replicon in HUH-7 cells; assay: HCV replicon luciferase reporter assay, genotype 1a; assay type: cell-based; conditions: Hepatitis C virus, Huh-7, 72 h, HCV genotype 1a replicon luciferase, 3 days incubation, range class, read-out: LE_1a (EC50, range)
Procedure, shortened: as §1

COc1ccc2c(O[C@@H]3C[C@H]4C(=O)N[C@]5(C(=O)NS(=O)(=O)C6CC6)C[C@H]5/C=C\CC[C@H](C)C[C@@H](C)[C@H](NC(=O)O[C@@H]5C[C@@H]6C[C@@H]6C5)C(=O)N4C3)nc(-c3ccc(OC(C)C)nc3)cc2c1 [Compound 5218, (1R,3r,5S)-bicyclo[3.1.0]hexan-3-yl ((2R,6S,7R,9S,13aS,14aR,16aS,Z)-14a-((cyclopropylsulfonyl)carbamoyl)-2-((3-(6-isopropoxypyridin-3-yl)-6-methoxyisoquinolin-1-yl)oxy)-7,9-dimethyl-5,16-dioxo-1,2,3,5,6,7,8,9,10,11,13a,14,14a,15,16,16a-hexadecahydrocyclopropa[e]pyrrolo[1,2-a][1,4]diazacyclopentadecin-6-yl)carbamate]
EC50 [1]: < 5.46 nM
EC50 [2]: < 5.46 nM

COc1ccc2c(O[C@@H]3C[C@H]4C(=O)N[C@]5(C(=O)NS(=O)(=O)C6CC6)C[C@H]5/C=C\CC[C@@H](C)C[C@@H](C)[C@H](NC(=O)O[C@@H]5C[C@@H]6C[C@@H]6C5)C(=O)N4C3)nc(-c3ccc(OC(C)C)nc3)cc2c1 [Compound 5219, (1R,3r,5S)-bicyclo[3.1.0]hexan-3-yl ((2R,6S,7R,9R,13aS,14aR,16aS,Z)-14a-((cyclopropylsulfonyl)carbamoyl)-2-((3-(6-isopropoxypyridin-3-yl)-6-methoxyisoquinolin-1-yl)oxy)-7,9-dimethyl-5,16-dioxo-1,2,3,5,6,7,8,9,10,11,13a,14,14a,15,16,16a-hexadecahydrocyclopropa[e]pyrrolo[1,2-a][1,4]diazacyclopentadecin-6-yl)carbamate]
EC50 [1]: < 5.46 nM
EC50 [2]: < 5.46 nM

COc1ccc2c(O[C@@H]3C[C@H]4C(=O)N[C@]5(C(=O)NS(=O)(=O)C6(C)CC6)C[C@H]5/C=C\CC[C@H](C)C[C@@H](C)[C@H](NC(=O)O[C@@H]5C[C@@H]6C[C@@H]6C5)C(=O)N4C3)nc(-c3ccc(OC(C)C)nc3)cc2c1 [Compound 5228, (1R,3r,5S)-bicyclo[3.1.0]hexan-3-yl ((2R,6S,7R,9S,13aS,14aR,16aS,Z)-2-((3-(6-isopropoxypyridin-3-yl)-6-methoxyisoquinolin-1-yl)oxy)-7,9-dimethyl-14a-(((1-methylcyclopropyl)sulfonyl)carbamoyl)-5,16-dioxo-1,2,3,5,6,7,8,9,10,11,13a,14,14a,15,16,16a-hexadecahydrocyclopropa[e]pyrrolo[1,2-a][1,4]diazacyclopentadecin-6-yl)carbamate]
EC50 [1]: < 5.46 nM
EC50 [2]: 4.82 to 103 nM

COc1ccc2c(O[C@@H]3C[C@H]4C(=O)N[C@]5(C(=O)NS(=O)(=O)C6(C)CC6)C[C@H]5/C=C\CC[C@@H](C)C[C@@H](C)[C@H](NC(=O)O[C@@H]5C[C@@H]6C[C@@H]6C5)C(=O)N4C3)nc(-c3ccc(OC(C)C)nc3)cc2c1 [Compound 5229, (1R,3r,5S)-bicyclo[3.1.0]hexan-3-yl ((2R,6S,7R,9R,13aS,14aR,16aS,Z)-2-((3-(6-isopropoxypyridin-3-yl)-6-methoxyisoquinolin-1-yl)oxy)-7,9-dimethyl-14a-(((1-methylcyclopropyl)sulfonyl)carbamoyl)-5,16-dioxo-1,2,3,5,6,7,8,9,10,11,13a,14,14a,15,16,16a-hexadecahydrocyclopropa[e]pyrrolo[1,2-a][1,4]diazacyclopentadecin-6-yl)carbamate]
EC50 [1]: < 5.46 nM
EC50 [2]: < 5.46 nM

C[C@H]1CC/C=C\[C@@H]2C[C@@]2(C(=O)NS(=O)(=O)C2CC2)NC(=O)[C@@H]2C[C@@H](Oc3nccc4c5c(ccc34)OC(F)(F)O5)CN2C(=O)[C@@H](NC(=O)O[C@@H]2C[C@@H]3C[C@@H]3C2)[C@H](C)C1 [Compound 5273, (1R,3r,5S)-bicyclo[3.1.0]hexan-3-yl ((2R,6S,7R,9S,13aS,14aR,16aS,Z)-14a-((cyclopropylsulfonyl)carbamoyl)-2-((2,2-difluoro-[1,3]dioxolo[4,5-f]isoquinolin-6-yl)oxy)-7,9-dimethyl-5,16-dioxo-1,2,3,5,6,7,8,9,10,11,13a,14,14a,15,16,16a-hexadecahydrocyclopropa[e]pyrrolo[1,2-a][1,4]diazacyclopentadecin-6-yl)carbamate]
EC50 [1]: 4.82 to 103 nM
EC50 [2]: 4.82 to 103 nM

C[C@@H]1CC/C=C\[C@@H]2C[C@@]2(C(=O)NS(=O)(=O)C2CC2)NC(=O)[C@@H]2C[C@@H](Oc3nccc4c5c(ccc34)OC(F)(F)O5)CN2C(=O)[C@@H](NC(=O)O[C@@H]2C[C@@H]3C[C@@H]3C2)[C@H](C)C1 [Compound 5274, (1R,3r,5S)-bicyclo[3.1.0]hexan-3-yl ((2R,6S,7R,9R,13aS,14aR,16aS,Z)-14a-((cyclopropylsulfonyl)carbamoyl)-2-((2,2-difluoro-[1,3]dioxolo[4,5-f]isoquinolin-6-yl)oxy)-7,9-dimethyl-5,16-dioxo-1,2,3,5,6,7,8,9,10,11,13a,14,14a,15,16,16a-hexadecahydrocyclopropa[e]pyrrolo[1,2-a][1,4]diazacyclopentadecin-6-yl)carbamate]
EC50 [1]: < 5.46 nM
EC50 [2]: < 5.46 nM

C[C@@H]1CC/C=C\[C@@H]2C[C@@]2(C(=O)NS(=O)(=O)C2(CF)CC2)NC(=O)[C@@H]2C[C@@H](Oc3nccc4c5c(ccc34)OCCO5)CN2C(=O)[C@@H](NC(=O)OC(C)(C)C)[C@H](C)C1 [Compound 5321, tert-butyl ((2R,6S,7R,9R,13aS,14aR,16aS,Z)-2-((2,3-dihydro-[1,4]dioxino[2,3-f]isoquinolin-7-yl)oxy)-14a-(((1-(fluoromethyl)cyclopropyl)sulfonyl)carbamoyl)-7,9-dimethyl-5,16-dioxo-1,2,3,5,6,7,8,9,10,11,13a,14,14a,15,16,16a-hexadecahydrocyclopropa[e]pyrrolo[1,2-a][1,4]diazacyclopentadecin-6-yl)carbamate]
EC50 [1]: < 5.46 nM
EC50 [2]: < 5.46 nM

CC[C@@H]1C[C@H](C)CC/C=C\[C@@H]2C[C@@]2(C(=O)NS(=O)(=O)C2(CF)CC2)NC(=O)[C@@H]2C[C@@H](Oc3nccc4c5c(ccc34)N(C)CCO5)CN2C(=O)[C@H]1NC(=O)OC(C)(C)C(C)(F)F [Compound 5324, 3,3-difluoro-2-methylbutan-2-yl ((2R,6S,7R,9R,13aS,14aR,16aS,Z)-7-ethyl-14a-(((1-(fluoromethyl)cyclopropyl)sulfonyl)carbamoyl)-9-methyl-2-((4-methyl-3,4-dihydro-2H-[1,4]oxazino[2,3-f]isoquinolin-7-yl)oxy)-5,16-dioxo-1,2,3,5,6,7,8,9,10,11,13a,14,14a,15,16,16a-hexadecahydrocyclopropa[e]pyrrolo[1,2-a][1,4]diazacyclopentadecin-6-yl)carbamate]
EC50 [1]: < 5.46 nM
EC50 [2]: < 5.46 nM

CC[C@@H]1C[C@H](C)CC/C=C\[C@@H]2C[C@@]2(C(=O)NS(=O)(=O)C2(C)CC2)NC(=O)[C@@H]2C[C@@H](Oc3nc4c(c5ccccc35)OCCC4)CN2C(=O)[C@H]1NC(=O)OC(C)(C)C(F)(F)F [Compound 6028, 1,1,1-trifluoro-2-methylpropan-2-yl ((2R,6S,7R,9R,13aS,14aR,16aS,Z)-2-((3,4-dihydro-2H-pyrano[3,2-c]isoquinolin-6-yl)oxy)-7-ethyl-9-methyl-14a-(((1-methylcyclopropyl)sulfonyl)carbamoyl)-5,16-dioxo-1,2,3,5,6,7,8,9,10,11,13a,14,14a,15,16,16a-hexadecahydrocyclopropa[e]pyrrolo[1,2-a][1,4]diazacyclopentadecin-6-yl)carbamate]
EC50 [1]: < 5.46 nM
EC50 [2]: < 5.46 nM

C[C@@H]1CC/C=C\[C@@H]2C[C@@]2(C(=O)NS(=O)(=O)C2(CF)CC2)NC(=O)[C@@H]2C[C@@H](Oc3nc4c(c5ccccc35)OCCC4)CN2C(=O)[C@@H](NC(=O)OC(C)(C)C(C)(F)F)[C@H](C)C1 [Compound 6032, 3,3-difluoro-2-methylbutan-2-yl ((2R,6S,7R,9R,13aS,14aR,16aS,Z)-2-((3,4-dihydro-2H-pyrano[3,2-c]isoquinolin-6-yl)oxy)-14a-(((1-(fluoromethyl)cyclopropyl)sulfonyl)carbamoyl)-7,9-dimethyl-5,16-dioxo-1,2,3,5,6,7,8,9,10,11,13a,14,14a,15,16,16a-hexadecahydrocyclopropa[e]pyrrolo[1,2-a][1,4]diazacyclopentadecin-6-yl)carbamate]
EC50 [1]: < 5.46 nM
EC50 [2]: < 5.46 nM
